Consider three compounds from patent US20240066065A1, “PLATELET DERIVATIVES FOR TREATING COAGULOPATHY” (Cellphire, Inc., priority 2019, published 2024).

For test [1], the system named is Platelet rich plasma. In words: T-TAS flow system (collagen and tissue factor coated channel), rivaroxaban-treated platelet rich plasma. Format: cell-based, human. As to conditions: 3 μM rivaroxaban (6.04 without). An excerpt:
(§1) In the Total Thrombus-formation Analysis System (T-TAS®, FUJIMORI KOGYO CO., LTD), the sample is forced through collagen-coated microchannels using mineral oil. Changes in pressure are used to assess thrombus formation. The Occlusion Start Time is time it takes to reach 10 kPa, and the Occlusion Time=time it takes to each Δ80 kPa using an AR chip (e.g., Zacros Item No, TC0101). According to the manufacturer, an AR chip can be used for analyzing the formation of a mixed white thrombus consisting chiefly of fibrin and activated platelets. It has a flow path (300 μm wide by 50 μm high) coated with collagen and tissue factors and can be used to analyze the clotting function and platelet function. In comparison, a PL chip can be used for analyzing the formation of a platelet thrombus consisting chiefly of activated platelets. A PL chip has a flow path coated with collagen only and can be used to analyze the platelet function.
In a similar experiment, T-TAS® assays were run according to Example 3 with no rivaroxaban, 3 μM rivoroxaban, and 3 μM rivoroxaban and 300×10^3/μL thrombosomes. Platelet rich plasma that was treated with 3 μM rivaroxaban extended occlusion times from 6.04 to 26.01 minutes on the T-TAS® flow system (collagen and tissue factor coated channel).

In test [2] the test system is whole blood. In words: T-TAS thrombus formation under flow, AR chip (collagen+TF), rivaroxaban-anticoagulated whole blood. The format is cell-based, human.
Text: as §1
Rivaroxaban (sometimes herein called Riv) dose-response in whole blood was measured using T-TAS®. An AR chip (Collagen+TF) was used. T-TAS® assays were performed according to Example 3. The donor platelets were used at 307k/μL.
Thrombosomes were prepared consistent with the procedures described in U.S. Pat. No. 8,486,617 (such as, e.g., Examples 1-5) and U.S. Pat. No. 8,097,403 (such as, e.g., Examples 1-3), and rehydrated by addition of sterile water. T-TAS® assays were run according to Example 3 using 3 μM rivaroxaban and different concentrations of thrombosomes (FIG. 10A, Table 8). The ‘No Riv’ vertical line indicates the approximate occlusion time of a sample with no added rivaroxaban.

Test [3] has as its system heparinized plasma. In words: Thrombin generation assay in heparinized George King Plasma. Format: biochemical, human. The settings on record: 2 U/mL heparin, 20 μg/mL protamine sulfate, thrombosomes 5K, 50K, 150K per μL. As for the experimental part: Thrombosomes were prepared consistent with the procedures described in U.S. Pat. No. 8,486,617 (such as, e.g., Examples 1-5) and U.S. Pat. No.8,097,403 (such as, e.g., Examples 1-3), and rehydrated by addition of sterile water. aPTT and thrombin generation assays were performed as described in Example 3. […] The dashed line at approximately 70 seconds denotes the limit of abnormal aPTT and the second dashed line is the maximum time measured by the instrument (120 sec). Thrombin generation in heparin treated samples was also measured. […] The dashed line in FIGS. 23B and 23C denotes a typical thrombin peak value seen in this assay for control plasma.
The dashed line at approximately 70 seconds denotes the limit of abnormal aPTT and the second dashed line is the maximum time measured by the instrument (120 sec). Thrombin generation in heparin treated samples was also measured, with and without protamine sulfate. […] The dashed line in FIGS. 24B and 24C enotes a typical thrombin peak value seen in this assay for control plasma.

The subject of test [4] is dabigatran treated PRP. As to conditions: dabigatran 100 ng/mL (18.89 untreated).
Procedure: • (1) Open CAT software; set up instrument; and prepare PRP reagent (including Tissue Factor and some phospholipids), calibrator, and fluoro-buffer according to manufacturer guidelines. • (2) Thaw warfarin or control plasma in 37° C. water bath for 5 minutes. • (3) Rehydrate thrombosomes with cell culture grade water for 10 minutes then dilute with Control Buffer to double target concentration. • (4) For each sample, combine 1:1 volumes of Control Buffer with or without thrombosomes and plasma. • (5) Using a multichannel pipette, add 20 μL of PRP reagent to each well. • (6) Add 80 μL of sample per well.

In test [1], `O=C(NC[C@H]1CN(c2ccc(N3CCOCC3=O)cc2)C(=O)O1)c1ccc(Cl)s1` [rivaroxaban] displayed an occlusion time of 26.01 min. Moreover, the AUC was 1686 kPa*min in test [2] (1 uM rivaroxaban), 423 kPa*min in test [2] (3 uM rivaroxaban) and 13.6 kPa*min in test [2] (9 uM rivaroxaban). Also, the “Occ Spd” value turned out to be 20.9 kPa/min in test [2] (1 uM rivaroxaban) and 28.2 kPa/min in test [2] (3 uM rivaroxaban). In addition, in test [2] (9 μM rivaroxaban (a pharmacological dose)), the “occlusion and thrombus formation” value is given as “inhibits occlusion but not all thrombus formation”.
In the case of Protamine Sulfate, the “thrombosome-mediated thrombin generation after heparin reversal” value in test [3] was “Restores Thrombosome-Mediated Thrombin Generation”.
In test [4], dabigatran displayed a Time to peak of 34.67 min.
